From paper PMC4965010 (PLoS ONE, 2016) come the findings set out here.

The experiment has as its target T1, human FXIIIa (Homo sapiens, UniProt P00488).
T1 construct: purchased Haematologic Technologies (Essex Junction, VT)
T1 sequence (P00488 39-732 limits assumed): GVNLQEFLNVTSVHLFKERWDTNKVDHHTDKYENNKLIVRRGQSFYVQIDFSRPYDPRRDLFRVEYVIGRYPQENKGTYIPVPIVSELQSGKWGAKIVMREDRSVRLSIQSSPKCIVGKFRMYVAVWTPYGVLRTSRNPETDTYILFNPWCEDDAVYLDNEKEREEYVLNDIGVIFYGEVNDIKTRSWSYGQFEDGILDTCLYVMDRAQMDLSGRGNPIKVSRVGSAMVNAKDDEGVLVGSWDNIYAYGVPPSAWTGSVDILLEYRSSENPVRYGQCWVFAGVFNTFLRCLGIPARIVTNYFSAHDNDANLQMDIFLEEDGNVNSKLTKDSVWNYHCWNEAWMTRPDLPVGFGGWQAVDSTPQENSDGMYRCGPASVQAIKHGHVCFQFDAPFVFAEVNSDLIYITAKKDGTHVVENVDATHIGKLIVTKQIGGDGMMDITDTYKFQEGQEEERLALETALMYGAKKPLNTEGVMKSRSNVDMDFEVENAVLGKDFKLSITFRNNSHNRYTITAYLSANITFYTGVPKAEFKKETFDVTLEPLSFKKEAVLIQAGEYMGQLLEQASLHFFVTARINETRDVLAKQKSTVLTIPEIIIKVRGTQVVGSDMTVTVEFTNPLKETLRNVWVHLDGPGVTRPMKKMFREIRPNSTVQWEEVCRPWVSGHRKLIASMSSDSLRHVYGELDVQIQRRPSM
In words: bisubstrate, fluorescence-based transglutamination assay (dansylcadaverine / N,N-dimethylcasein). It counts as biochemical. To be noted: pH 8.0, 37°C; for inhibition at 20 µM: pH 8, 20 μM. Here is the method:
The library of sulfated molecules was screened for inhibition of human FXIIIa using a modified bisubstrate, fluorescence-based transglutamination assay, as described earlier. Dansylcadaverine and N,N-dimethyl-casein were used as two substrates, which upon FXIIIa-dependence conjugation show a marked increase in fluorescence at 550 nm (λEX = 360 nm). Initial screening was performed at 200 μM NSGM concentration (1–15) or 50–1110 μM GAG concentration (16–22) (Table 1). At these levels, none of GAGs inhibited FXIIIa by more than 5%. […] Trimeric scaffolds 13 and 14 inhibited FXIIIa by 94% and 29%, respectively. […] To identify promising NSGMs from these, screening was performed at a lower concentration (20 μM).
Direct inhibition of human FXIIIa was measured spectrofluorometrically by a bisubstrate, fluorescence-based transglutamination assay at pH 8.0 and 37°C on a microplate reader (FlexStation III, Molecular Devices) (modified from earlier reports). Briefly, to each well of a 96-well microplate containing 80 μL of 50 mM TrisHCl buffer, pH 8.0, containing 100 mM NaCl, 10 mM CaCl2, and 2 mg/mL dimethylcasein was added 5 μL potential NSGM-based inhibitor (0–20 mM aqueous solution) or vehicle, 5 μL DTT (20 mM), and 5 μL enzyme (0.12–1.2 μM) at 37°C. After 5 min incubation, 5 μL of dansylcadaverine (2.5 mM) was rapidly added and the residual enzyme activity was measured from the initial rate of increase in RFU (λEM = 550 nm, λEX = 360 nm). Relative residual enzyme activity (Y) as a function of the concentration of sulfated molecule was fitted using logistic Eq 1 to obtain the potency (IC50), efficacy (ΔY) and Hill slope (HS) of inhibition. In this equation, YM and Yo are the maximal and minimal values of Y.

Setting [1] is: pH 8, 200 μM, read-out: FXIIIa inhibition at 200 μM (%).

SMILES strings stand for the structures. Where two headings read alike, the source gives them in different places. Marks after values point to notes of the source that are not given here.

What is called IC50 is the midpoint of a concentration-inhibition curve. Broadly, the inhibition is the share of the control response that was lost under treatment.

As to `NC(=O)CI` [IAA, Iodoacetamide, reference compound], the “HS, Hill slope (FXIIIa)” value came out at 0.8 ± 0.2; the 50% inhibitory concentration (IC50) stood at 2.9 ± 0.4 µM; the “ΔY, efficacy (FXIIIa)” value came out at 105 ± 10%. In addition, the “ΔY, efficacy (FXIIIa)” value (listed as Iodoacetamide) is ~ 100%. Take `O=c1c(OS(=O)(=O)O)c(-c2ccc(OS(=O)(=O)O)c(OS(=O)(=O)O)c2)oc2cc(OS(=O)(=O)O)cc(OS(=O)(=O)O)c12` [Molecule 1]: the “FXIIIa inhibition at 200 μM (%)” value is recorded as 31 ± 4^b %. Moreover, the inhibition at 200 µM (pH 8, read-out: FXIIIa inhibition at 200 μM (%), 200 μM) is about 30%. For the compound `O=S(=O)(O)Oc1cc2c(c(OS(=O)(=O)O)c1)C[C@H](OS(=O)(=O)O)[C@@H](c1ccc(OS(=O)(=O)O)c(OS(=O)(=O)O)c1)O2` [Molecule 2], the “FXIIIa inhibition at 200 μM (%)” value amounted to 32 ± 6%. In addition, the inhibition at 200 µM under setting [1] was about 30%.

As to `O=c1c(OS(=O)(=O)O)c(-c2ccc(OS(=O)(=O)O)c(OS(=O)(=O)O)c2)oc2cc(OS(=O)(=O)O)cc(OCCOc3cc(OS(=O)(=O)O)cc4oc(-c5ccc(OS(=O)(=O)O)c(OS(=O)(=O)O)c5)c(OS(=O)(=O)O)c(=O)c34)c12` [Molecule 3], the inhibition at 20 µM fell in the range of 27 to 40%. For the same compound, the “FXIIIa inhibition at 20 μM (%)” value (20 μM) came to 26 ± 2%. In addition, the inhibition at 200 µM under setting [1] worked out at 65 ± 3%.

On to `O=c1c(OS(=O)(=O)O)c(-c2ccc(OS(=O)(=O)O)c(OS(=O)(=O)O)c2)oc2cc(OS(=O)(=O)O)cc(OCCCOc3cc(OS(=O)(=O)O)cc4oc(-c5ccc(OS(=O)(=O)O)c(OS(=O)(=O)O)c5)c(OS(=O)(=O)O)c(=O)c34)c12` [Molecule 4], for which, under setting [1], the inhibition at 200 µM is 67 ± 5%.

On to `O=c1c(OS(=O)(=O)O)c(-c2ccc(OS(=O)(=O)O)c(OS(=O)(=O)O)c2)oc2cc(OS(=O)(=O)O)cc(OCCCCOc3cc(OS(=O)(=O)O)cc4oc(-c5ccc(OS(=O)(=O)O)c(OS(=O)(=O)O)c5)c(OS(=O)(=O)O)c(=O)c34)c12` [Molecule 6], for which the inhibition at 20 µM was 40 ± 3%. For the same compound, the inhibition at 200 µM under setting [1] turned out to be 89 ± 5%. For `O=c1c(OS(=O)(=O)O)c(-c2ccc(OS(=O)(=O)O)c(OS(=O)(=O)O)c2)oc2cc(OS(=O)(=O)O)cc(OC/C=C/COc3cc(OS(=O)(=O)O)cc4oc(-c5ccc(OS(=O)(=O)O)c(OS(=O)(=O)O)c5)c(OS(=O)(=O)O)c(=O)c34)c12` [Molecule 7], in that order: 31 ± 3% and 58 ± 4%.

For the compound `O=c1c(OS(=O)(=O)O)c(-c2ccc(OS(=O)(=O)O)c(OC/C=C/COc3cc(-c4oc5cc(OS(=O)(=O)O)cc(O)c5c(=O)c4OS(=O)(=O)O)ccc3OS(=O)(=O)O)c2)oc2cc(OS(=O)(=O)O)cc(O)c12` [Molecule 8], the inhibition at 200 µM under setting [1] came to 84 ± 5%.

`CO[C@H]1O[C@H](COS(=O)(=O)O)[C@@H](O[C@@H]2O[C@@H](C(=O)O)[C@@H](O[C@H]3O[C@H](COS(=O)(=O)O)[C@@H](O[C@@H]4O[C@H](C(=O)O)[C@@H](O[C@H]5O[C@H](COS(=O)(=O)O)[C@@H](O)[C@H](O)[C@H]5NS(=O)(=O)O)[C@H](O)[C@H]4O)[C@H](OS(=O)(=O)O)[C@H]3NS(=O)(=O)O)[C@H](O)[C@H]2OS(=O)(=O)O)[C@H](O)[C@H]1NS(=O)(=O)O` [Molecule 18, fondaparinux, reference compound] returned an inhibition at 360 µM (pH 8, at 360 μM) of about 0%. For the compound `O=S(=O)(O)OC[C@H]1O[C@@](COS(=O)(=O)O)(O[C@H]2O[C@H](COS(=O)(=O)O)[C@@H](OS(=O)(=O)O)[C@H](OS(=O)(=O)O)[C@H]2OS(=O)(=O)O)[C@@H](OS(=O)(=O)O)[C@@H]1OS(=O)(=O)O` [Molecule 22, sucrose octasulfate, reference compound], under setting [1], the inhibition at 200 µM was about 17%.
